From ChEMBL document CHEMBL1201862, “PubChem BioAssay data set” (2004)
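Interpolation was linear, between the two tested concentrations surrounding the appropriate level; five concentrations were tested over 48 hours in 96-well plates. The concentration for 50% growth inhibition is given as GI50.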 Activity calls are given as the source filed them. Rule as the data show it: active = GI50 up to about 1.1 µM and inactive = higher.

Tests used:
Assay in all cases: DTP human tumour cell line panel, 48 h
SN12C = test system: SN12C
SF-539 = test system: SF-539
MOLT-4 = test system: MOLT-4
HT-29 = test system: HT-29
HCC 2998 = test system: HCC 2998
UO-31 = test system: UO-31
CAKI-1 = test system: CAKI-1
OVCAR-8 = test system: OVCAR-8
UACC-62 = test system: UACC-62
TK-10 = test system: TK-10
HCT-15 = test system: HCT-15
CCRF-CEM = test system: CCRF-CEM
Hs-578T = test system: Hs-578T
DU-145 = test system: DU-145
SK-MEL-2 = test system: SK-MEL-2
EKVX = test system: EKVX
LOX IMVI = test system: LOX IMVI
A549 = test system: A549
NCI-H522 = test system: NCI-H522
NCI-H226 = test system: NCI-H226
OVCAR-5 = test system: OVCAR-5
SF-268 = test system: SF-268
K562 = test system: K562
SK-MEL-28 = test system: SK-MEL-28
NCI/ADR-RES = test system: NCI/ADR-RES
COLO 205 = test system: COLO 205
RPMI-8226 = test system: RPMI-8226
NCI-H23 = test system: NCI-H23
KM12 = test system: KM12
Malme-3M = test system: Malme-3M
ACHN = test system: ACHN
HOP-62 = test system: HOP-62
RXF 393 = test system: RXF 393
SW-620 = test system: SW-620
MCF7 = test system: MCF7
UACC-257 = test system: UACC-257
IGROV-1 = test system: IGROV-1
HOP-92 = test system: HOP-92
OVCAR-4 = test system: OVCAR-4
SNB-19 = test system: SNB-19
A498 = test system: A498
SK-OV-3 = test system: SK-OV-3
BT-549 = test system: BT-549
T47D = test system: T47D
MDA-MB-231 = test system: MDA-MB-231
M14 = test system: M14
HL-60 = test system: HL-60
SNB-75 = test system: SNB-75
NCI-H460 = test system: NCI-H460
SK-MEL-5 = test system: SK-MEL-5
U-251 = test system: U-251
HCT-116 = test system: HCT-116
SR = test system: SR
PC-3 = test system: PC-3
SF-295 = test system: SF-295
786-0 = test system: 786-0
MDA-MB-435 = test system: MDA-MB-435
OVCAR-3 = test system: OVCAR-3

With `COc1ccc(-c2cc(O)c3ccc(C)nc3n2)cc1` the GI50 (SN12C) was > 100 µM (inactive), the GI50 (SF-539) was > 100 µM (inactive) and the GI50 (MOLT-4) was 49.4 µM (inactive). For the same compound, the GI50 (HT-29) was 81.5 µM (inactive), the GI50 (HCC 2998) was > 100 µM (inactive) and the GI50 (UO-31) was > 100 µM (inactive). For the same compound, the GI50 (CAKI-1) was > 100 µM (inactive), the GI50 (OVCAR-8) was > 100 µM (inactive) and the GI50 (UACC-62) was 86.1 µM (inactive). The GI50 (TK-10) was > 100 µM (inactive), the GI50 (HCT-15) was over 100 µM and the GI50 (CCRF-CEM) was > 100 µM (inactive). The GI50 (Hs-578T) was > 100 µM (inactive), the GI50 (DU-145) was > 100 µM (inactive) and the GI50 (SK-MEL-2) was > 100 µM (inactive). The GI50 (EKVX) was > 100 µM (inactive), the GI50 (LOX IMVI) was > 100 µM (inactive) and the GI50 (A549) was > 100 µM (inactive). For the same compound, the GI50 (NCI-H522) was > 100 µM (inactive), the GI50 (NCI-H226) was > 100 µM (inactive) and the GI50 (OVCAR-5) was > 100 µM (inactive). The GI50 (SF-268) was > 100 µM (inactive), the GI50 (K562) was > 100 µM (inactive) and the GI50 (SK-MEL-28) was > 100 µM (inactive). For the same compound, the GI50 (NCI/ADR-RES) was > 100 µM (inactive), the GI50 (COLO 205) was > 100 µM (inactive) and the GI50 (RPMI-8226) was 55.7 µM (inactive). For the same compound, the GI50 (NCI-H23) was > 100 µM (inactive), the GI50 (KM12) was > 100 µM (inactive) and the GI50 (Malme-3M) was > 100 µM (inactive). For the same compound, the GI50 (ACHN) was > 100 µM (inactive), the GI50 (HOP-62) was > 100 µM (inactive) and the GI50 (RXF 393) was > 100 µM (inactive). For the same compound, the GI50 (SW-620) was > 100 µM (inactive), the GI50 (MCF7) was > 100 µM (inactive) and the GI50 (UACC-257) was > 100 µM (inactive). For the same compound, the GI50 (IGROV-1) was 43.2 µM (inactive), the GI50 (HOP-92) was 97.7 µM (inactive) and the GI50 (OVCAR-4) was > 100 µM (inactive). The GI50 (SNB-19) was > 100 µM (inactive), the GI50 (A498) was 65.6 µM (inactive) and the GI50 (SK-OV-3) was > 100 µM (inactive). The GI50 (BT-549) was > 100 µM (inactive), the GI50 (T47D) was 96.8 µM (inactive) and the GI50 (MDA-MB-231) was > 100 µM (inactive). For the same compound, the GI50 (M14) was > 100 µM (inactive).

`COc1cc(O)c2c(=O)cc(C3(O)C=CC(=O)C=C3)oc2c1` was tested, and the GI50 (SN12C) was 0.135 µM (active), the GI50 (SF-539) was < 0.01 µM (active) and the GI50 (MOLT-4) was 0.0815 µM (active). The GI50 (HL-60) was < 0.01 µM (active), the GI50 (HT-29) was < 0.01 µM (active) and the GI50 (HCC 2998) was 0.535 µM (active). The GI50 (UO-31) was 0.0733 µM (active), the GI50 (CAKI-1) was < 0.0476 µM (active) and the GI50 (OVCAR-8) was 0.0448 µM (active). For the same compound, the GI50 (UACC-62) was 0.378 µM (active), the GI50 (SNB-75) was 1.22 µM (inactive) and the GI50 (TK-10) was 0.0658 µM (active). The GI50 (HCT-15) was 0.0435 µM, the GI50 (CCRF-CEM) was < 0.01 µM (active) and the GI50 (Hs-578T) was 0.968 µM (active). The GI50 (DU-145) was 0.839 µM (active), the GI50 (SK-MEL-2) was 0.619 µM (active) and the GI50 (NCI-H460) was 0.675 µM (active). The GI50 (EKVX) was 1.36 µM (inactive), the GI50 (LOX IMVI) was 0.041 µM (active) and the GI50 (NCI-H522) was < 0.0361 µM (active). For the same compound, the GI50 (NCI-H226) was 0.394 µM (active), the GI50 (SK-MEL-5) was 0.0321 µM (active) and the GI50 (U-251) was < 0.0405 µM (active). For the same compound, the GI50 (SF-268) was 0.428 µM (active), the GI50 (K562) was < 0.01 µM (active) and the GI50 (HCT-116) was 0.29 µM (active). The GI50 (SK-MEL-28) was 0.199 µM (active), the GI50 (NCI/ADR-RES) was 0.0588 µM (active) and the GI50 (COLO 205) was 0.463 µM (active). For the same compound, the GI50 (NCI-H23) was 0.664 µM (active), the GI50 (KM12) was 0.083 µM (active) and the GI50 (Malme-3M) was < 0.01 µM (active). For the same compound, the GI50 (ACHN) was < 0.045 µM (active), the GI50 (HOP-62) was 0.182 µM (active) and the GI50 (RXF 393) was 3.44 µM (inactive). The GI50 (SR) was < 0.01 µM (active), the GI50 (SW-620) was < 0.0417 µM (active) and the GI50 (UACC-257) was 0.489 µM (active). The GI50 (IGROV-1) was < 0.01 µM (active), the GI50 (OVCAR-4) was 0.393 µM (active) and the GI50 (SNB-19) was 6.93 µM (inactive). For the same compound, the GI50 (A498) was 4.05 µM (inactive), the GI50 (SK-OV-3) was 2.37 µM (inactive) and the GI50 (PC-3) was 0.131 µM (active). For the same compound, the GI50 (BT-549) was 0.363 µM (active), the GI50 (T47D) was 0.378 µM (active) and the GI50 (MDA-MB-231) was 0.327 µM (active). The GI50 (M14) was 0.542 µM (active) and the GI50 (SF-295) was 0.631 µM (active).

`CN(/N=C\c1ccc2ccccc2c1)C1=NCCCN1` was tested, and the GI50 (SF-539) was 19.8 µM (inactive), the GI50 (MOLT-4) was 2.39 µM (inactive) and the GI50 (HL-60) was 8.71 µM (inactive). The GI50 (HT-29) was 12 µM (inactive), the GI50 (HCC 2998) was 11.7 µM (inactive) and the GI50 (UO-31) was 9.93 µM (inactive). The GI50 (CAKI-1) was 4.88 µM (inactive), the GI50 (OVCAR-8) was 15.4 µM (inactive) and the GI50 (UACC-62) was 14.2 µM (inactive). For the same compound, the GI50 (SNB-75) was 13.3 µM (inactive), the GI50 (TK-10) was 14 µM (inactive) and the GI50 (HCT-15) was 17.7 µM. For the same compound, the GI50 (CCRF-CEM) was 12.7 µM (inactive), the GI50 (Hs-578T) was 10.7 µM (inactive) and the GI50 (DU-145) was 27.4 µM (inactive). The GI50 (SK-MEL-2) was 15.2 µM (inactive), the GI50 (NCI-H460) was 4.7 µM (inactive) and the GI50 (EKVX) was 17.3 µM (inactive). The GI50 (LOX IMVI) was 7.41 µM (inactive), the GI50 (A549) was 8.18 µM (inactive) and the GI50 (NCI-H522) was 13.8 µM (inactive). For the same compound, the GI50 (NCI-H226) was 17 µM (inactive), the GI50 (SK-MEL-5) was 11.9 µM (inactive) and the GI50 (786-0) was 12.7 µM (inactive). The GI50 (OVCAR-5) was 28.1 µM (inactive), the GI50 (U-251) was 20 µM (inactive) and the GI50 (SF-268) was 13.8 µM (inactive). The GI50 (K562) was 11.7 µM (inactive), the GI50 (HCT-116) was 13.8 µM (inactive) and the GI50 (SK-MEL-28) was 14.6 µM (inactive). The GI50 (NCI/ADR-RES) was 19.5 µM (inactive), the GI50 (COLO 205) was 12.7 µM (inactive) and the GI50 (RPMI-8226) was 14.9 µM (inactive). The GI50 (NCI-H23) was 25.9 µM (inactive), the GI50 (KM12) was 15 µM (inactive) and the GI50 (Malme-3M) was 13.3 µM (inactive). The GI50 (ACHN) was 13.3 µM (inactive), the GI50 (HOP-62) was 12.1 µM (inactive) and the GI50 (RXF 393) was 14.3 µM (inactive). The GI50 (SR) was 13.1 µM (inactive), the GI50 (MDA-MB-435) was 15.2 µM (inactive) and the GI50 (SW-620) was 12.1 µM (inactive). For the same compound, the GI50 (MCF7) was 3.56 µM (inactive), the GI50 (UACC-257) was 10.4 µM (inactive) and the GI50 (IGROV-1) was 4.56 µM (inactive). The GI50 (HOP-92) was 2.11 µM (inactive), the GI50 (OVCAR-4) was 26.5 µM (inactive) and the GI50 (OVCAR-3) was 18.9 µM (inactive). For the same compound, the GI50 (A498) was 13.6 µM (inactive), the GI50 (SK-OV-3) was 19.1 µM (inactive) and the GI50 (BT-549) was 1.87 µM (inactive). The GI50 (T47D) was 22.6 µM (inactive), the GI50 (MDA-MB-231) was 15.6 µM (inactive) and the GI50 (SF-295) was 11.9 µM (inactive).
